According to patent publication US20040180855A1, “Methods of treating thrombosis with reduced risk of increased bleeding times” (priority 2003, published 2004):

Tests used:
Plasmin = target: T1, Plasmin (Homo sapiens, UniProt P00747); test: Selectivity assay plasmin; assay type: biochemical; details: Table 3
T1 construct: Plasmin (Kabi Vitrum) was measured as for thrombin; purchased Kabi Vitrum

[1] = system: stasis-VT (vena cava thrombosis); test: Venous thrombosis, stasis VT model; assay type: in vivo; details: rat stasis VT
Experimental: General Surgical Preparation Male Sprague Dawley rats (310 to 390 g) were anesthetized with Na-pentobarbital (50 mg/kg i.p.). The left jugular vein was cannulated with PE-50 tubing for drug administration, and the trachea was intubated with PE-205 tubing to ensure airway patency. […] Statistical Analysis In the venous and arterial thrombosis procedures, treatment effects on thrombus weight, baseline blood flow, and average blood flow during thrombosis were determined by analysis of variance with Dunnett's test for comparison to the vehicle group. […] Treatment effects on bleeding times were determined by analysis of variance with Dunnett's test for comparison to the vehicle group. Both post-treatment and pre-treatment bleeding times and the relative bleeding time increases in sec were analyzed. […]

[2] = system: renal cortex bleeding time; test: Renal cortex bleeding time (RCBT) model; assay type: in vivo; details: rat, i.v. 12+12 and 24+24 mg/kg+mg/kg/hr, pre- vs post-treatment, FIG. 5
Experimental: Experimental Bleeding Time Two models of bleeding time were performed, namely, a renal cortex bleeding model (using template incision of the renal cortex), and a mesenteric artery bleeding model (using severance of small mesenteric arteries).
In the renal cortex bleeding time (RCBT) model, both kidneys were exposed by a midline abdominal incision, and the renal capsules were removed to expose the bare renal cortex which was superfused with Ringer's solution maintained at 37° C. […] While observing under 3×-binocular magnifier, the time in sec from injury until bleeding stopped was recorded. Three bleeding times were determined on the right kidney before, and on the left kidney 15 min after, the start of test article infusion. […]
Statistical Analysis In the venous and arterial thrombosis procedures, treatment effects on thrombus weight, baseline blood flow, and average blood flow during thrombosis were determined by analysis of variance with Dunnett's test for comparison to the vehicle group. […] Treatment effects on bleeding times were determined by analysis of variance with Dunnett's test for comparison to the vehicle group. Both post-treatment and pre-treatment bleeding times and the relative bleeding time increases in sec were analyzed. […]

rat plasma (ex vivo PT) = test: Ex vivo clotting time PT; assay type: in vivo; details: loading plus sustaining i.v. infusion
Experimental: Ex Vivo Clotting Times Ex vivo clotting time assays were used to determine the level of anticoagulation achieved in the thrombosis and bleeding time procedures, described above. A small organic compound for inhibiting Factor XIa was administered at doses (mg/kg+mg/kg/hr) of 0.5+0.5 (n=3), 2+2 (n=4), 6+6 (n=3), 12+12 (n=3) and 24+24 (n=10). Carotid artery blood (0.6 mL drawn into 1/10 volume of 3.8% Na-citrate) was sampled before (0 min control) and at 5, 15, 30, 60 and 90 min after the start of the compound infusion. The APTT was determined in freshly prepared plasma from each sample using the standard procedure for Dade Actin FSL reagent (Baxter Healthcare Corp., Miami, Fla.). The PT was determined in some animals from the 6+6 (n=3), 12+12 (n=3) and 24+24 (n=2) dose groups using Dade Thromboplastin●C reagent.
Plasma was sampled before (0 min control) and after the infusion, at intervals of 5, 15, 30, 60 and 90 min after initiating the infusion. Average APTT increases over the 15-90 min period, an interval most applicable to thrombosis and bleeding time protocols, were calculated. Control APTT values averaged 19.9±1.3 seconds overall. The PT was unaltered as expected from in vitro results. […] The range of efficacious doses in venous and arterial thrombosis (2+2, 6+6, 12+12; mg/kg+mg/kg/hr) produced an APTT increase of about 2.8 times control.

T1 sequence (P00747 581-810 limits assumed): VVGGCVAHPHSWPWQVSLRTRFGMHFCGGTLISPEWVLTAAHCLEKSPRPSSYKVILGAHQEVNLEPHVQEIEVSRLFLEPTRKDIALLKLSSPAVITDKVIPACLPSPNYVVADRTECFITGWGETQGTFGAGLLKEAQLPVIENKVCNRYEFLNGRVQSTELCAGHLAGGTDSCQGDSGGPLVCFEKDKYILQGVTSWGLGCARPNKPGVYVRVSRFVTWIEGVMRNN
T1 sequence (P00747 97-580 partner limits assumed): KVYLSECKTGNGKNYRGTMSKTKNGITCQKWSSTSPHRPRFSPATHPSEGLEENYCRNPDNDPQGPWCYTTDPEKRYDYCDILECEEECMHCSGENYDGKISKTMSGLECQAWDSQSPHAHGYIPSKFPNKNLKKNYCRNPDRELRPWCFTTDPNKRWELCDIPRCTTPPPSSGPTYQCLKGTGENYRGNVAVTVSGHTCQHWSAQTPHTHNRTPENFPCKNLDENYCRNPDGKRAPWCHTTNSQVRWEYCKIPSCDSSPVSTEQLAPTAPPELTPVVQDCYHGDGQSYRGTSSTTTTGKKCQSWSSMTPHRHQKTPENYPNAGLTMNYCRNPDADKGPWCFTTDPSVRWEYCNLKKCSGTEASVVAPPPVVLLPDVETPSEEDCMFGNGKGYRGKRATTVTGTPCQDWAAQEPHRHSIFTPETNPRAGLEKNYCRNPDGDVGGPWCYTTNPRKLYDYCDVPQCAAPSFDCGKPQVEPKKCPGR

With `CC(C)(C)NC(=O)N1CCN(C(=O)N2C(=O)[C@H](CCCNC(=N)N)[C@H]2C(=O)O)CC1` [Example 4] the IC50 (Plasmin) was 1.7 µM, the “effect on thrombus weight” value ([1]; i.v. 2+2 mg/kg+mg/kg/hr) was “little effect” and the “reduction in thrombus weight” value ([1]; i.v. 6+6 mg/kg+mg/kg/hr, FIG. 4) was 64%. The “effect on renal cortex bleeding times” value [2] was “no effect” and the “effect on ex vivo PT” value (rat plasma (ex vivo PT)) was “unaltered”.
